Laboratory results from patent US10674728B2, “Pesticidal compositions” (SYNGENTA PARTICIPATIONS AG, priority 2016, dated 2020).

Columns and labels:
[1] = test system: Glomerella lagenarium syn. Colletotrichum lagenarium; test: Tests against Glomerella lagenarium (anthracnose of cucurbits), growth inhibition in microtiter plate; format: cell-based; conditions: Colletotrichum orbiculare, 72 hrs, 24° C., read-out: Observed % activity
[2] = test system: Rice (Oryza sativa L.) of the local variety ADT45; test: Heat stress mitigation field trials in rice, grain yield; format: in vivo; conditions: 10 gAl/Ha, foliar spray at panicle formation (BBCH 32), hot season
Method: Tests were conducted to determine the heat stress mitigation efficacy of compositions of the present invention.
Trials were conducted in the Tamil Nadu rice production area (India) during the hot season in 2016.
Rice (Oryza sativa L.) of the local variety ADT45 was mechanically transplanted at four plants per hill with a plant spacing of 16 cm and a row spacing of 30 cm. All trials were performed in good level of water management. Fertilizer was applied in accordance with the best local practice across the trial area.
Commercial treated seeds (no neonicotinoids as seed treatments) were used. Weed control was according to the best local practice in order to provide excellent weed control. Foliar fungicides and insecticides were applied according to common practice (no products that contain neonicotinoids or strobilurins).
The trial design was a randomized bloc design. Plot size was 40 m^2 (4 m width [12 rows] by 10 m row length). Each trial had four replicates. In total, eleven trials were conducted.
Treatments were applied with small-plot hand-held boom sprayer as broadcast foliar spray in close proximity to leaf/canopy surface (25-40 cm distance from the crop), at the following different treatment timings: panicle initiation (BBCH 30), panicle formation (BBCH 32), spikelet differentiation (BBCH 35) and meiosis (BBCH 39).

Pyricularia orzyae = test: microbe, parasite or virus in culture; format: cell-based; conditions: 72 h, read-out: Observed % activity
Rhizoctonia solani = test: Tests against Rhizoctonia solani (foot rot, damping-off), growth inhibition in microtiter plate; format: cell-based; conditions: 72 hrs, 24° C., read-out: Observed % activity
[3] = (A) Formula (Ia) 10.0 ppm alone

| SMILES | inhibition at 0.625 ppm ([1]; (A) Formula (Ia) 0.6250 ppm alone, inhibition of growth, photometric at 620 nm) | inhibition at 1.25 ppm ([1]; (A) Formula (Ia) 1.25 ppm alone) | inhibition at 2.5 ppm ([1]; (A) Formula (Ia) 2.5 ppm alone) | inhibition at 5 ppm ([1]; (A) Formula (Ia) 5.0 ppm alone) | inhibition at 10 ppm [1, 3] | Average yield increase compared to UTC [2] | Yield at 14% MC [2] | inhibition at 0.1563 ppm (Pyricularia orzyae) | inhibition at 10 ppm (Pyricularia orzyae) | inhibition at 5 ppm (Rhizoctonia solani; (A) Formula (Ia) 5.0 ppm alone, inhibition of growth, photometric) | inhibition at 10 ppm (Rhizoctonia solani; [3]) | inhibition at 20 ppm (Rhizoctonia solani; (A) Formula (Ia) 20.0 ppm alone) | inhibition at 0.25 ppm ([1]; (B) Difenoconazole 0.25 ppm alone) | inhibition at 0.0625 ppm (Pyricularia orzyae) | inhibition at 0.25 ppm (Pyricularia orzyae) | inhibition at 2 ppm (Rhizoctonia solani; (B) Difenoconazole 2.0 ppm alone) |
| --- | --- | --- | --- | --- | --- | --- | --- | --- | --- | --- | --- | --- | --- | --- | --- | --- |
| COc1cccc(Nc2nc(F)nc3[nH]cnc23)c1 [Formula (Ia)] | 5% | 0% | 2% | 0% | 0% | 4.4% | 6820 kg/ha | 0% | 3% | 7% | 0% | 0% |  |  |  |  |
| CC1COC(Cn2cncn2)(c2ccc(Oc3ccc(Cl)cc3)cc2Cl)O1 (stereo not shown) [Difenoconazole, difenoconazole, reference compound] |  |  |  |  |  |  |  |  |  |  |  |  | 36% | 34% | 71% | 47% |
